Test results reported in PubChem BioAssay AID1205 (EPA DSSTox, 2008).
Calls of active or inactive are those of the source.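 Rule for the calls: active = tumour findings in long-term animal cancer tests in more than one sex, species or organ; inactive = no tumour finding and more than one negative test.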

assay: DSSTox (CPDBAS) Carcinogenic Potency Database Summary MultiCellCall Results; settings: animal carcinogenicity bioassays, multi-cell call summary
Procedure, shortened: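 ActivityScore sums 50 for multispecies, 30 for multisex and 20 for multisite positivity. Based on the most positive experiment per sex-species across standardised chronic rodent and other animal cancer tests.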

| SMILES | outcome |
| --- | --- |
| CCCC[C@H](C)[C@@H](OC(=O)C[C@H](CC(=O)O)C(=O)O)[C@@H](C[C@H](C)C[C@@H](O)CCCC[C@@H](O)C[C@H](O)[C@H](C)N)OC(=O)C[C@H](CC(=O)O)C(=O)O | active; multisite active; multisex active; multispecies active |
| S=C(S)NCCNC(=S)S | inactive; multisex inactive |
| O=C1c2ccccc2C(=O)N1SC(Cl)(Cl)Cl | active; multisite active; multisex active |
| O=C1c2ccccc2CN2C(=O)c3ccccc3CN12 | active; multisite active; multisex active |
| Clc1c(Cl)c(Cl)c(Cl)c(Cl)c1Cl | active; multisite active; multisex active; multispecies active |
| S=C(NC1CCCCC1)NC1CCCCC1 | inactive; multisex inactive; multispecies inactive |
| c1ccc2c(c1)cc1ccc3cccc4ccc2c1c34 | active; multisite active; multisex active; multispecies active |
| O=c1cc[nH]c(=S)[nH]1 | active; multisite active; multisex active; multispecies active |
| NNC=O | active; multisex active |
| C/C=N/N(C)C=O | active; multisite active; multisex active |
| CCn1cc(C(=O)O)c(=O)c2ccc(C)nc21 | active; multisite active; multisex active |
| O=S(=O)(c1ccc(Cl)cc1)c1cc(Cl)c(Cl)cc1Cl | inactive; multisex inactive |
| Cc1ccc(N=Nc2c(O)ccc3ccccc23)c([N+](=O)[O-])c1 | active; multisite active; multisex active; multispecies active |
| Cc1nnc2n1-c1sc(CCc3ccc(CC(C)C)cc3)cc1C(c1ccccc1Cl)=NC2C (configuration not stated) | inactive; multisex inactive |
| CCCC/C=N/N(C)C=O | active; multisite active; multisex active |
| C#C[C@]1(O)CC[C@H]2[C@@H]3CCC4=C(CCC(=O)C4)[C@H]3CC[C@@]21C | inactive; multisex inactive |
| Cc1ccc(N)cc1Cl | inactive; multisex inactive; multispecies inactive |
| O=C(Nc1nc(-c2ccc([N+](=O)[O-])o2)cs1)C(F)(F)F | active; multisite active; multispecies active |
| Clc1ccc(C(c2ccccc2Cl)C(Cl)Cl)cc1 (configuration not stated) | inactive; multisex inactive |
| N#CN=C(N)N | inactive; multisex inactive |
| Cc1cc(C)c(N=Nc2c(O)c(S(=O)(=O)O)cc3cc(S(=O)(=O)O)ccc23)cc1C | active; multisex active |
| C=C(C)C(=O)Nc1ccc(Cl)c(Cl)c1 | inactive; multisex inactive |
| Oc1ccc2c(c1)OCO2 | active; multisex active; multispecies active |

| SMILES | outcome |
| --- | --- |
| Cc1ccc(S(=O)(=O)Oc2ccc(N=Nc3ccc(-c4ccc(N=Nc5c(O)ccc6cc(S(=O)(=O)O)cc(S(=O)(=O)O)c56)c(C)c4)cc3C)cc2)cc1 | active; multisite active; multisex active |
| CCC1(c2ccccc2)C(=O)NC(=O)NC1=O | active; multisex active |
| CC(C)C/C=N/N(C)C=O | active; multisite active; multisex active |
| C[C@]12C/C(=C/O)C(=O)C[C@@H]1CC[C@@H]1[C@@H]2CC[C@@]2(C)[C@H]1CC[C@]2(C)O | active; multisite active |
| Cn1cnc([N+](=O)[O-])c1Sc1ncnc2nc[nH]c12 | active; multisite active |
| CN(C)C(=O)NC1CC2CC1C1CCCC21 (configuration not stated) | inactive; multisex inactive |
| Oc1c(Cl)cc(Cl)c(Cl)c1Cc1c(O)c(Cl)cc(Cl)c1Cl | inactive; multisex inactive; multispecies inactive |
| O=S1OCC2C(CO1)C1(Cl)C(Cl)=C(Cl)C2(Cl)C1(Cl)Cl (configuration not stated) | inactive; multisex inactive; multispecies inactive |
| C/C=C1/C[C@@H](C)[C@](O)(CO)C(=O)OCC2=CC[N+]3([O-])CC[C@@H](OC1=O)[C@@H]23 (some centres not stated) | active; multisex active |
| O=C(CCl)c1ccccc1 | inactive; multisex inactive; multispecies inactive |
| O=NN(CC(F)(F)F)CC(F)(F)F | inactive; multisex inactive |
| IC(I)I | inactive; multisex inactive; multispecies inactive |
| CCNC(=O)N(CCO)N=O | active; multisite active; multisex active |
| CC(C)(CO)CCCCCCC(C)(C)CO | inactive; multisex inactive |
| O=NN1CCCCCCC1 | active; multisite active |
| Cl | inactive; multisex inactive |
| CNC(=O)Oc1cc(C)c(N(C)C)c(C)c1 | inactive; multisex inactive; multispecies inactive |
| OCc1ccccc1 | inactive; multisex inactive; multispecies inactive |
| CC(O)CO (configuration not stated) | inactive; multisex inactive |
| O=S(O)S(=O)(=O)O | inactive; multisex inactive |
| COC1[C@@H](O[C@@H]2O[C@H](C)[C@@H](O[C@H]3C[C@@](C)(O)[C@H](OC(=O)CC(C)C)[C@H](C)O3)[C@H](N(C)C)[C@H]2O)[C@@H](CC=O)C[C@@H](C)[C@@H](O)/C=C/C=C/C[C@@H](C)OC(=O)C[C@H]1OC(C)=O (some centres not stated) | inactive; multisex inactive |
| NNc1ccc(C(=O)O)cc1 | active; multisex active |
| Clc1ccc(Sc2cc(Cl)c(Cl)cc2Cl)cc1 | inactive; multisex inactive |

| SMILES | outcome |
| --- | --- |
| [Cd+2].[Cl-].[Cl-] | active; multisite active; multisex active |
| Cn1c(N)nc2ncc(-c3ccccc3)cc21 | active; multisite active; multisex active; multispecies active |
| COc1cc(/C=C/C(=O)CC(=O)/C=C/c2ccc(O)c(OC)c2)ccc1O | inactive; multisex inactive; multispecies inactive |
| O=C(Nc1cccc2c(=O)cc(-c3nn[nH]n3)oc12)c1ccc(OCCCCc2ccccc2)cc1 | inactive; multisex inactive |
| NC(=O)N(CCO)N=O | active; multisite active; multisex active; multispecies active |
| CC(=O)CN(N=O)C(N)=O | active; multisex active |
| Nc1cc(Cl)c(N)c(Cl)c1 | active; multisex active |
| COC(=O)[C@H]1[C@H]2C[C@@H]3c4[nH]c5cc(OC)ccc5c4CCN3C[C@H]2C[C@@H](OC(=O)c2cc(OC)c(OC)c(OC)c2)[C@@H]1OC | active; multisite active; multisex active; multispecies active |
| CC(C)Nc1nc(Cl)nc(NC(C)C)n1 | inactive; multisex inactive |
| COc1ccc(N)cc1N | active; multisite active; multisex active; multispecies active |
| C/C(=C(\CCOC(=O)c1ccccc1)SC(=O)c1ccccc1)N(C=O)Cc1cnc(C)nc1N | inactive; multisex inactive |
| [Cl-].[Cl-].[Sn+2] | inactive; multisex inactive; multispecies inactive |
| O=Nc1ccc(Nc2ccccc2)cc1 | active; multispecies active |
| CC(C)OC(=O)Nc1cccc(Cl)c1 | inactive; multisex inactive; multispecies inactive |
| CCN(CC)C(=S)[S-].CCN(CC)C(=S)[S-].[Cd+2] | inactive; multisex inactive |
| C=CF | active; multisite active; multisex active; multispecies active |
| CCCCCCCCCCCN(C)N=O | active; multisite active |
| CC(C)OC(=O)Nc1ccccc1 | inactive; multisex inactive; multispecies inactive |
| Nc1ccc([N+](=O)[O-])cc1 | inactive; multisex inactive; multispecies inactive |
| O=NN1CCCN(N=O)CC1 | active; multisite active |
| C[C@]12CC[C@H]3C(=CCc4cc(OS(=O)(=O)O)ccc43)[C@@H]1CCC2=O | inactive; multisex inactive |
| O=[N+]([O-])c1ccc(Cl)c([N+](=O)[O-])c1 | inactive; multisex inactive; multispecies inactive |
| CN(C)/N=N/c1nc[nH]c1C(N)=O | active; multisite active; multisex active; multispecies active |

| SMILES | outcome |
| --- | --- |
| Cn1cc[nH]c1=S | active; multisex active |
| OCl | inactive; multisex inactive; multispecies inactive |
| ClCC(Cl)CCl | active; multisite active; multisex active; multispecies active |
| c1ccc(-c2ccccc2)cc1 | inactive; multisex inactive |
| C/C=C/C=C/C=O | active; multisex active; multispecies active |
| [S-]c1nc2ccccc2s1.[S-]c1nc2ccccc2s1.[Zn+2] | inactive; multisex inactive |
| CC/C=C(/CC)[N+](=O)[O-] | active; multispecies active |
| CN(C)C=O | inactive; multisex inactive; multispecies inactive |
| CN(C)C(=S)[S-].CN(C)C(=S)[S-].[Cu+2] | inactive; multisex inactive |
| NC(=O)c1cccnc1 | inactive; multisex inactive |
| Clc1ccc2c(c1)C(c1ccccc1)=NCc1nncn1-2 | inactive; multisex inactive; multispecies inactive |
| CCCCCCCCCCCC[N+](C)(C)[O-] | inactive; multisex inactive |
| Cc1ccc2c(c1)C(N1CCN(C)CC1)=Nc1ccccc1S2 | inactive; multisex inactive |
| Nc1cc(S(=O)(=O)[O-])cc2cc(S(=O)(=O)[O-])c(N=Nc3ccc(-c4ccc(N=Nc5c(S(=O)(=O)[O-])cc6cc(S(=O)(=O)[O-])cc(N)c6c5O)c(O)c4)cc3O)c(O)c12.[Cu].[Cu].[Na+].[Na+].[Na+].[Na+] | active; multisite active; multisex active; multispecies active |
| CCOCCc1c(-c2ccccc2)nc(N)n2ncnc12 | active; multisite active; multisex active |
| S=P(N1CC1)(N1CC1)N1CC1 | active; multisite active; multisex active; multispecies active |
| CNc1ncnc2c1ncn2[C@@H]1O[C@H](CO)[C@@H](O)[C@H]1O | inactive; multisex inactive |
| c1ccc2n[nH]nc2c1 | inactive; multisex inactive; multispecies inactive |
| C=CC1=C(C)C2=CC3=NC(=C(CC(=O)[O-])C4=NC(=C(C)C4=C([O-])[O-])C=c4[n-]c(c(C)c4CC)=CC1=N2)[C@@H](CCC(=O)[O-])[C@@H]3C.[Cu+2].[Na+].[Na+].[Na+] | inactive; multisex inactive |
| CC1=C(/C=C/C(C)=C/C=C/C(C)=C/C=C/C=C(C)/C=C/C=C(C)/C=C/C2=C(C)CCCC2(C)C)C(C)(C)CCC1 | inactive; multisex inactive; multispecies inactive |
| O=C1OC(O)C(C(Cl)Cl)=C1Cl (configuration not stated) | active; multisite active; multisex active |
| ClC(Cl)=C(Cl)c1c(Cl)c(Cl)c(Cl)c(Cl)c1Cl | inactive; multisex inactive; multispecies inactive |
| CCCN(N=O)C(N)=O | active; multisex active |
